Data published in patent publication US9248162B2, “Factor H for treatment of rheumatoid arthritis” (Baxter International Inc., priority 2013, dated 2016).
“And” between values parts separate entries of the source, which are not always exact repeats. Equal entries are not always repeated. “Also recorded” adds a separate entry of the source.

Columns and labels:
[1] = system: collagen antibody-induced arthritis; test: Mouse CAIA: ankle histology scores (H & E); type: in vivo, Balb C mice; parameters: key to Score From H & E: Inflammation: 0: normal; 1: minimal infiltration of inflammatory cells in periarticular tissue; 2: mild infiltration; 3: moderate infiltration with moderate edema; 4: marked infiltration with marked edema; 5: severe infiltration with severe edema; key to Exostosis, Summary (significance) / Composite, Summary (significance) / Pannus, Summary (significance) / Cartilage, Summary (significance) / Inflammation, Summary (significance): ns: = not significant; *: = P < 0.05; **: = P < 0.01; ***: = P < 0.001; Composite Biohistopathology Score, group value / Composite Biohistopathology Score: scale not given here; settings: for Cartilage, Difference in rank sum / Cartilage, Summary (significance) / Composite, Difference in rank sum / Composite, Summary (significance) / Exostosis, Difference in rank sum / Exostosis, Summary (significance) / Inflammation, Difference in rank sum / Inflammation, Summary (significance) / Pannus, Difference in rank sum / Pannus, Summary (significance): Vehicle vs agent, Dunn's Multiple Comparison Test; for Composite Biohistopathology Score, group value / Score From H & E: Bone Resorption, group value / Score From H & E: Cartilage Damage, group value / Score From H & E: Inflammation, group value / Score From H & E: Pannus, group value / Score From H & E: Periosteal/Exostotic Changes, group value / Composite Biohistopathology Score / Score From H & E: Inflammation: ankle; for Composite Biohistopathology Score, group value / Score From H & E: Bone Resorption, group value / Score From H & E: Cartilage Damage, group value / Score From H & E: Inflammation, group value / Score From H & E: Pannus, group value / Score From H & E: Periosteal/Exostotic Changes, group value: group mean ± spread, 10 animals; for Score From H & E: Bone Resorption, group value / Score From H & E: Cartilage Damage, group value / Score From H & E: Inflammation, group value / Score From H & E: Pannus, group value / Score From H & E: Periosteal/Exostotic Changes, group value / Score From H & E: Inflammation: score 0-5; for Composite Biohistopathology Score / Score From H & E: Inflammation: individual animal, endpoint day 22; for Composite Score: histopathology composite, hind limbs at endpoint; for Composite Score / Bone Resorption / Cartilage Damage / Exostosis / Inflammation / Pannus: group value; for Bone Resorption / Cartilage Damage / Exostosis / Inflammation / Pannus: histopathology score, graded 1-5, hind limbs at endpoint
Method: Balb C mice (n=10 per cohort) were used to determine the efficacy of Factor H (FH) during […]. The mice were treated with ArthritoMAb (anti-collagen) antibody cocktail (2 mg, i.v.) on day 1, followed 7 days later with an injection of LPS (50 μg, i.p.). On day 8, hind paw volumes were measured for each animal and distributed to various treatment groups.
Dosing with the different agents was started on day 8 as described in Table 3.
Hind paw volumes were measured on day 8, 11, 12, 13, 15, 19 and 22 (endpoint). The age at start date was 7 to 9 weeks. Body weights were measured bi-weekly to the endpoint (Table 4). At the endpoint, tissue samples were processed for histology and submitted to a pathologist for independent analysis. Sampling 1 was performed at the endpoint. The hind limbs were preserved in 10% formalin. Sampling 2 was performed at the endpoint for group 4 animals. Blood was collected by terminal cardiac puncture. The blood was processed for anti-coagulant. The kidneys were additionally preserved in formalin and followed with 70% EtOH. Samples were scored for inflammation, pannus (granulation tissue), cartilage damage, bone resorption and exostosis (Table 5).

[2] = system: C3H kidneys grafted into pre-sensitized recipients; test: Pre-sensitized mouse kidney allograft model, CFH with or without FK506, creatinine (Example 1); type: in vivo, C57BL/6 (B6) mice
Description: Male C3H (H-2k) and C57BL/6 (B6, H-2b) mice (25-30 g) were used to determine the efficacy of Complement Factor H (CFH) during transplant rejection. C3H mice served as skin graft and kidney donors for pre-sensitization and kidney transplantation. Male C57BL/c (B6) mice were used as recipients. The B6 recipients were pre-sensitized by transplantation of the donor skin grafts, and were subsequently transplanted with kidney allografts between 15 and 20 days after the skin transplantation. B6 mice were treated with vehicle (controls), CFH (day −1, day 0, then every other day to day 10; 8 mg/mouse, i.p.), FK506 (daily from day −1 to day 10; 1 mg/kg s.c.) or the combination of CFH+FK506 using the same dosage regime as the single treatments. Mice were monitored daily for signs of rejection. Renal function was monitored by measuring serum creatinine levels.

[3] = system: pre-sensitized kidney transplants; test: Early phase (POD3, POD5) kidney graft function, CFH with or without Adrenomedullin (Example 3); type: in vivo, C57BL/6 (B6) mice; settings: result in words; POD5, vs. untreated controls (FIG. 6A)
Method: The effect of CFH with or without Adrenomedullin (AM) on kidney graft function, antibody response, and histology was determined following the early phase of transplantation (POD3 and POD5). […] To test whether AM provides additional benefits to renal graft function, an additional group of transplants were treated with a single dose infusion (200 μl, i.v.) of AM (˜100 ug/kg) mixed with CFH (˜1 mg/kg) immediately following the transplant surgery (POD0), in addition to the i.p. injection of CFH (day-1, 0, and every other day). CFH is a serum-binding protein for AM. It has been shown that AM influences the complement regulatory function of Factor H by enhancing the cleavage of C3b via Factor I. […] FH concentration will be 112.5 μg/ml). Transfer 220 μl aliquots to sterile tubes and freeze at −70 until ready for use. All mice were sacrificed on POD3 and 5, respectively (˜5/ea). Untreated transplants sacrificed at the same endpoints were used as controls. Graft tissues were harvested for histology and immune-histochemistry (IHC). The experimental groups were as follows: 1) C3H to B6 txs+pre-sensitization+control; 2) C3H to B6 txs+pre-sensitization+CFH (i.p.); and 3) C3H to B6 txs+pre-sensitization+CFH (i.p.)+AM/CFH infusion (at time of transplant).

[4] = system: pre-sensitized kidney transplants; test: Early phase kidney allograft histology, HE staining (Example 3); type: in vivo, C57BL/6 (B6) mice; settings: result in words; POD5 (FIG. 6B)
Method: The effect of CFH with or without Adrenomedullin (AM) on kidney graft function, antibody response, and histology was determined following the early phase of transplantation (POD3 and POD5). The pre-sensitized kidney transplants were treated with CFH (8 mg, i.p.) on day −1, day 0 and then every other day. To test whether AM provides additional benefits to renal graft function, an additional group of transplants were treated with a single dose infusion (200 μl, i.v.) of AM (˜100 ug/kg) mixed with CFH (˜1 mg/kg) immediately following the transplant surgery (POD0), in addition to the i.p. injection of CFH (day-1, 0, and every other day).
All mice were sacrificed on POD3 and 5, respectively (˜5/ea). Untreated transplants sacrificed at the same endpoints were used as controls. Graft tissues were harvested for histology and immune-histochemistry (IHC). The experimental groups were as follows: 1) C3H to B6 txs+pre-sensitization+control; 2) C3H to B6 txs+pre-sensitization+CFH (i.p.); and 3) C3H to B6 txs+pre-sensitization+CFH (i.p.)+AM/CFH infusion (at time of transplant).

Row | Substance | Cartilage, Difference in rank sum [1] | Cartilage, Summary (significance) [1] | Composite, Difference in rank sum [1] | Composite, Summary (significance) [1] | Exostosis, Difference in rank sum [1] | Exostosis, Summary (significance) [1] | Inflammation, Difference in rank sum [1] | Inflammation, Summary (significance) [1] | Pannus, Difference in rank sum [1] | Pannus, Summary (significance) [1] | Composite Biohistopathology Score, group value [1] | Score From H & E: Bone Resorption, group value [1] | Score From H & E: Cartilage Damage, group value [1] | Score From H & E: Inflammation, group value [1] | Score From H & E: Pannus, group value [1] | Score From H & E: Periosteal/Exostotic Changes, group value [1] | Composite Score [1] | Bone Resorption [1] | Cartilage Damage [1] | Exostosis [1] | other results
1 | Etanercept | −1.5 | ns | 2.1 | ns | 5.8 | ns | 3.6 | ns | 0.3 | ns | 6.0 ± 2.1 | 1.0 ± 0.4 | 0.7 ± 0.3 | 1.5 ± 0.5 | 1.4 ± 0.5 | 1.4 ± 0.6 | 6.0 ± 2.1^ns | 1.0 ± 0.4^ns | 0.7 ± 0.3^ns | 1.4 ± 0.6^ns | Composite Biohistopathology Score ([1]; listed as Group 3): 11 (2×) and 0 (4×) and 16 and 15 and 1 and 4; Score From H & E: Inflammation ([1]; listed as Group 3): 3 (4×) and 0 (4×) and 1 and 2; Inflammation [1]: 1.5 ± 0.5^ns; Pannus [1]: 1.4 ± 0.5^ns
2 | Factor H | −0.75 | ns | 3.25 | ns | 11.5 | * (= P < 0.05) | 6.45 | ns | 1.9 | ns | 3.1 ± 1.2 | 0.3 ± 0.2 | 0.6 ± 0.2 | 1.0 ± 0.3 | 0.9 ± 0.3 | 0.3 ± 0.3 | 3.1 ± 1.2^ns | 0.3 ± 0.2^ns | 0.6 ± 0.2^ns | 0.3 ± 0.3 | plasma Cr levels ([2]; POD7, CFH 8 mg/mouse i.p., controls 1.9±0.1): 1.4 ± 0.2 mg/dL; renal allograft function ([2]; result in words, creatinine on POD7 (FIG. 2)): improving renal allograft function; renal function, Cr level [3]: trend of improved renal function; kidney graft morphology (HE staining) [4]: improved morphology with less tubular necrosis on POD5; Composite Biohistopathology Score ([1]; listed as Group 4): 1 (3×) and 4 and 5 and 2 and 0 (2×) and 13 and 3; Score From H & E: Inflammation ([1]; listed as Group 4): 0 (4×) and 1 (3×) and 2 (2×) and 3; Inflammation [1]: 1.0 ± 0.3^ns; Pannus [1]: 0.9 ± 0.3^ns; histopathology ([1]; result in words (Table 8, FIG. 11), listed as FH): inhibits exostosis; also recorded: trend toward improved inflammation and bone resorption
